Here are results for six molecules from publication PMC4757757, “Discovery of cahuitamycins as biofilm inhibitors derived from a convergent biosynthetic pathway” (Nature Communications, 2016).

For data set [1] the following is noted: reference value used for the calculation; cited from earlier work. How it is done:
(§1) In this method, the Fe–cahuitamycin complex was incubated with varying concentrations of EDTA and assessed for Fe distribution using ultraviolet–visible spectroscopy (Methods). The pFe^III for cahuitamycins were calculated against the known stability constants for EDTA (pFe^III=23.42)[24].

For data set [2], the system named is A. baumannii ATCC 17978 biofilm. It is filed as cell-based, Acinetobacter baumannii. Particulars: static crystal violet assay, OD600. An excerpt:
A static biofilm assay was developed from a previously reported method. The biofilm assay measures the adhesion of bacteria to the surface of polystyrene 384-well microtiter plates. Adherent cells are detected by staining with crystal violet and subsequent washing to remove nonadherent planktonic cells. Inhibitors of biofilm formation prevent the bacteria from adhering to the surface of the microtiter plate and reduce the amount of crystal violet retained after washing. Assay quantification was performed by OD600 absorbance measurement of the crystal-violet-stained biofilm. The assay was optimized for plate surface treatment, time, temperature, media, media concentration, crystal violet concentration, wash method, inhibitor sensitivity and culture inoculum preparation.
The A. baumannii test strain (ATCC 17978) was maintained as a frozen stock at −80 °C in 20% glycerol. A volume of 5 ml of Mueller Hinton II cation adjusted media (Becton Dickinson, catalogue no. 212322) was inoculated and grown at 37 °C, 180 r.p.m. shaking for 4–6 h. The culture was then diluted 1:50 and incubated an additional 2 h. The resulting cells were washed four times by centrifugation and resuspension of the pellet in media was performed to remove any metabolites or cell signalling factors. The assay inoculum was prepared by diluting the cells to 0.008 OD600 in 10% Mueller Hinton II cation adjusted media (diluted in 18 Ohm deionized water). The assay plates (Corning, catalogue no. 3,680; 384-well non-treated polystyrene) were prepared by dispensing 20 μl of 10% Mueller Hinton II cation adjusted media into columns 1–22 using a Multidrop Combi dispenser (Thermo Fisher). The NPE samples were added as 0.2 μl of 15 mg ml^−1 stocks in DMSO using a Biomek FX high-density pintool (Beckman Coulter). Column 1 and 2 contained DMSO without NPEs and served as the negative control. The positive control was added to column 23 and 24 as 20 μl of 40 μM Baicalein (Sigma-Aldrich, catalogue no. 11712). […] Quantification was performed by measuring the OD600 absorbance using a Pherastar plate reader (BMG).

Data set [3] can be described thus: iron affinity (pFe^III) by competition titration with EDTA, UV-visible spectroscopy. It is filed as binding. Conditions: 10 mM HEPES, 0.1 M KCl, pH 7.4, 0.1 mM Fe complex, room temperature, at least 24 h, UV-vis, three individual titrations. How it is done:
as §1

The test system of the next data set is A. baumannii ATCC 17978. The data set is described as follows: growth of A. baumannii (minimum inhibitory concentration test, OD600 / CFU). It is filed as cell-based, Acinetobacter baumannii. How it is done:
Cultures of A. baumannii ATCC 17978 grown overnight were diluted into fresh 10% Mueller Hinton II broth to get 10^5 colony-forming unit per ml by determining optical density at OD600. A volume of 100 μl of diluted cultures were incubated in individual wells of 96-well plate containing 1% of DMSO and various concentrations of cahuitamycins C (3) and D (4). The plate was incubated at 30 °C with shaking at 150 r.p.m. The optical density of each well was monitored every 1 up to 24 h using a microtiter plate reader (Synergy HT, Bio-Tek, Winooski, VT). The number of viable bacterial cells was determined by counting colony-forming unit.

Data set [4] concerns A. baumannii ATCC 17978 biofilm. The data set is described as follows: confocal laser scanning microscope 3D imaging of biofilm formation and biomass (SYTO 9 / propidium iodide, COMSTAT). It is filed as cell-based, Acinetobacter baumannii. The method, then:
For visualizing bacterial biofilm formation, the same method as described previously was used for biofilm formation but in a glass-bottom 96-well plate (12–556–38, Fisher Scientific International Inc., Franklin, MA)[65]. […] PBS buffer (100 μl) containing 1 μM of SYTO 9 and 10 μM of propidium iodide was added into the well. The plate was incubated for 15 min in dark. Fluorescent images were acquired with an Olympus Fluoview FV1000 confocal microscope (Olympus, Markham, Ontario) with Melles Griot Laser supply and detectors and filter sets for monitoring SYTO 9 and propidium iodide fluorescence. Images were obtained using an oil immersion × 60 objective lens. 3D images were reconstructed using the Amira software package (Amira, San Diego, CA) from a stack of sectional images of biofilm samples. Biofilm biomass and per cent coverage were calculated based on those images using software COMSTAT[65].

Data set [5] shares this test system. The data set is described as follows: flow cell biofilm assay (micrographs). The data set is classed as cell-based, Acinetobacter baumannii. Particulars: for biofilm in flow cells after 6 h of supplementation (in words) / biofilm in flow cells after 24 h of supplementation (in words): 7.5 μg/ml in 10% MHII broth, flow rate 4 ml/h, room temperature. The method, then:
Next, we sought to probe the specific stage and extent of inhibition during biofilm formation employing a secondary flow cell assay (Supplementary Fig. 44; Methods).
Biofilms were formed by A. baumannii ATCC 17978 in flow chambers at room temperature. Images were taken at 1, 6 and 24 h (using a × 60 lens) after inoculation. A flow cell biofilm was achieved by using a flow cell chamber (ACCFL0001, Life Science Incorporated, Greensboro, NC). Briefly, overnight cultures of A. baumannii ATCC 17978 grown in MHII broth at 37 °C were diluted 100-fold with fresh MHII broth. A volume of 1 ml of dilution was injected into a flow cell chamber and allowed to settle 1 h for attachment of bacteria, followed by initiation media flow at a flow rate of 4 ml^−1 h^−1. Flow media was 10% MHII broth (control), 10% MHII broth with 7.5 μg ml^−1 of desferoxamine or 10% MHII broth with […] of cahuitamycin A. Micrographs of the biofilm were acquired at 1, 6 and 24 h after the start of flow media using an Olympus IX70 microscope with a × 60 lens. Flow was still running while acquiring the micrograph.

Where [6] appears, read: treated at 240 nM, 22 h incubation, confocal x60, average of five replicates.

Turning to `O=C(O)CN(CCN(CC(=O)O)CC(=O)O)CC(=O)O` [EDTA], the “pFe^III (known stability constant)” value in data set [1] is reported as 23.42.
Regarding `Cc1ccc(O)c(C2=N[C@H](C(=O)N[C@@H](CO)C(=O)N[C@H](CCCN(O)C=O)C(=O)N[C@H](CCCNO)C(=O)NCCC(=O)O)CO2)c1` [compound 5, Cahuitamycin E], the IC50 in data set [2] (10% Mueller Hinton II, 30 °C, 20 h, average of three replicates, read-out: IC50, inhibition of biofilm formation) is 10.5 µM.
In the case of `Cc1cccc(O)c1C1=N[C@H](C(=O)N[C@@H](CO)C(=O)N[C@H](CCCN(O)C=O)C(=O)N2NCCC[C@@H]2C(=O)NCCC(=O)O)CO1` [compound 3, Cahuitamycin C], the “pFe^III” value in data set [3] came out at 17.52±0.12. Further, the “effect on bacterial growth (in words)” value in the data set with A. baumannii ATCC 17978 was “limited effect”. Besides, the “total biomass of biofilm” value in data set [4] (glass plate treated at 240 nM) is 0.10. Also, in data set [4] (setting [6]), the “Average thickness of biofilm” value was 0.20±0.05 μm, the “Maximum thickness of biofilm” value came out at 1.5±0.33 μm, the “Roughness coefficient of biofilm” value was found to be 1.99±0.20 and the “total biomass of biofilm” value is 0.10±0.03 μm^3 μm^−2.
For the molecule Cahuitamycin B [compound 2], the “pFe^III” value in data set [3] was determined as 20.42±0.09. The “effect on biofilm formation (in words)” value in data set [2] was “no effects”. In addition, in the data set on A. baumannii ATCC 17978, the “effect on bacterial growth (in words)” value was “no effects”.
Take Cahuitamycin A [compound 1]: the “pFe^III” value in data set [3] came to 18.34±0.16. Moreover, the “effect on biofilm formation (in words)” value in data set [2] is reported as “able to inhibit”. Moreover, in data set [5], the “biofilm in flow cells after 6 h of supplementation (in words)” value is “only a few microcolonies”; the “biofilm in flow cells after 24 h of supplementation (in words)” value is “larger microcolonies and initiation of biofilm formation”. The “total biomass of biofilm” value in data set [4] (glass plate treated at 240 nM) came to 0.18. Also, in data set [4] (setting [6]), the “Average thickness of biofilm” value is listed as 0.21±0.07 μm, the “Maximum thickness of biofilm” value stood at 1.5±0.54 μm, the “Roughness coefficient of biofilm” value turned out to be 1.99±0.18 and the “total biomass of biofilm” value worked out at 0.18±0.05 μm^3 μm^−2.
Consider `CC(=O)N(O)CCCCCNC(=O)CCC(=O)N(O)CCCCCNC(=O)CCC(=O)N(O)CCCCCN` [desferrioxamine], for which, in data set [5], the “biofilm in flow cells after 6 h of supplementation (in words)” value was “formation of a robust biofilm” and the “biofilm in flow cells after 24 h of supplementation (in words)” value is listed as “biofilm became thicker”. The “anti-biofilm activity of siderophore control (in words)” value in data set [5] (control to probe iron chelation as mode of action, Supplementary Figs 38 and 44) is on record as “no activity”.
